Test system: pRb (Ser780)
Assay: High content imaging of Rb phosphorylation (Ser780), EFM-19
Format: cell-based
Conditions: Homo sapiens, 16 hours, mean ± Stdev n = 2
Protocol: Relative IC50/EC50 values were determined by curve fitting to a four parameter logistic equation: Y = bottom + ((top-bottom)/ (1+exp(HillSlope*(X – LnIC50)), where X is the natural log of dose/concentration, Y is response, decreasing as X increases, top and bottom are plateaus in the same units as Y, lnIC50 is the natural log of potency, in the same log units as X, and HillSlope measures the steepness of the curve. Data were plotted using GraphPad Prism.
As controls, cells were treated with 10 µM palbociclib or vehicle ( 0.2 % v/v DMSO). Additional details for cell-based assays are provided in the Supplemental Methods. […]
www.impactjournals.com/oncotarget/ Oncotarget Supplementary Materials
Preclinical characterization of abemaciclib in hormone receptor […]
METHODS High content imaging cell-based assays for monitoring phosphorylation of Rb (ser780), G1 arrest and
Enzyme kinetics of CDK6/cyclin D3 complexes Cells were fixed with para-formaldehyde and Rb phosphorylation at Serine 780 was detected using CDK6/cyclin D3 activity was measured by the a primary mouse anti-Rb (PS780) antibody followed phosphorylation of CTRF using [g-33P] […] Plates were read in an kinase buffer containing 68 mM Hepes at pH 7.5, 6.67 mM Acumen Explorer eX3 (TTP Labtech). […]
(EDTA) was used to determine the level of background evaluated by measuring PI signal using high content 33P in the absence of enzyme activity. […]

IC50: 12 ± 11 nM
Structure (SMILES): CCN1CCN(Cc2ccc(Nc3ncc(F)c(-c4cc(F)c5nc(C)n(C(C)C)c5c4)n3)nc2)CC1 [abemaciclib, Abemaciclib]

Reference: paper PMC5642494 (Oncotarget, 2017)
